Assay results as given in US12480848B2, “Crack sensor, preparation method therefor, and application thereof in micro-force measurement” (QILU UNIVERSITY OF TECHNOLOGY (SHANDONG ACADEMY OF SCIENCES), priority 2022, dated 2025).
Where two headings read alike, the source gives them in different places.

Test system: cardiomyocytes (CM)
Assay: Drug evaluation: CM contractility (contractile force, beating rate) measured with the Ag/CNT-PDMS crack sensor
Conditions: for EC50: Cardiomyocyte

Question: Which results are given for CC(C)NCC(O)c1ccc(O)c(O)c1 (stereo not shown) [isoproterenol]?
Answer: EC50 (read-out: apparent EC50 of CM beating rate (dose-response curve)): 71.4 nM; EC50 (read-out: apparent EC50 of CM contractile force (dose-response curve)): 92.6 nM; contractile force and beating rate (concentration increased from 0.1 nM to 1 μM): gradually increased; CM contractility (when the concentration reached 100 nM): became saturated
